ChEMBL document CHEMBL1140603, “Simple criterion for selection of flavonoid compounds with anti-HIV activity” (Bioorg Med Chem Lett, 2007)

These compounds were tested on Human immunodeficiency virus 1 (assay: Inhibition of HIV1 replication).
Type: functional, organism-based

SMILES	EC50 [µM]
COc1ccc(-c2oc3cc(O)ccc3c(=O)c2OC)cc1	≥ 100
COc1cc(O)c2c(=O)cc(-c3ccc(O)cc3)oc2c1 [GENKWANIN]	≥ 100
COc1ccc(-c2cc(=O)c3c(OC)c(OC)c(OC)c(OC)c3o2)cc1 [TANGERETIN]	≥ 100
O=c1cc(-c2ccc(O)cc2)oc2cc(O)cc(O)c12 [APIGENIN]	≥ 100
COc1ccc(-c2cc(=O)c3c(OC)c(OC)ccc3o2)cc1OC	≥ 100
O=c1c(O)c(-c2ccc(O)c(O)c2)oc2cc(O)cc(O)c12 [QUERCETIN]	< 100
O=c1cc(-c2ccccc2)oc2cc(O)cc(O)c12 [CHRYSIN]	≥ 100
COc1ccc(-c2cc(=O)c3c(O)cc(O)cc3o2)cc1 [ACACETIN]	≥ 100
O=c1cc(-c2ccc(O)c(O)c2)oc2ccccc12	≥ 100
COc1ccc(-c2cc(=O)c3c(OC)c(OC)c(OC)cc3o2)cc1OC [SINENSETIN]	≥ 100
COc1ccc(-c2cc(=O)c3c(OC)c(OC)c(OC)cc3o2)cc1	≥ 100
O=c1c(O)c(-c2ccc(O)c(O)c2)oc2cc(O)ccc12 [FISETIN]	< 100
O=c1cc(-c2ccccc2)oc2cc(O)ccc12 [7-HYDROXYFLAVONE]	≥ 100
COc1cc(O)c2c(=O)c(O)c(-c3ccc(O)c(O)c3)oc2c1 [RHAMNETIN]	< 100

The remaining lines, values ahead:

EC50 [µM]	SMILES
< 100	O=c1c(O)c(-c2ccc(O)cc2O)oc2cc(O)cc(O)c12 [MORIN]
< 100	O=c1c(O)c(-c2ccc(O)c(O)c2)oc2cc(O)c(O)c(O)c12 [QUERCETAGETIN]
< 100	O=c1c(O)c(-c2cc(O)c(O)c(O)c2)oc2cc(O)ccc12 [ROBINETIN]
< 100	COc1c(O)cc2oc(-c3ccc(O)c(O)c3)cc(=O)c2c1O [EUPAFOLIN]
< 100	O=c1c(O)c(-c2cc(O)c(O)c(O)c2)oc2cc(O)cc(O)c12 [MYRICETIN]
< 100	O=c1c(O)c(-c2ccc(O)cc2)oc2cc(O)cc(O)c12 [KAEMPFEROL]
